pEC50, pIC50: −log10 of the molar value. Like-named read-outs stand apart in the source and are kept apart here.
Key:
[1] = tested on: NCI-H1373 cells; assay: NCI-H1373 CellTiter-Glo cell assay for TIPARP inhibition; assay type: cell-based, human; conditions: 6 days, 100 nM 10-Cl-BBQ in medium, read-out: NCI-H1373 CTG EC50
Description: The NCI-H1373 CellTiter-Glo® assay was used to determine cell numbers after TIPARP inhibition-induced cell cycle arrest, and enabled screening of compounds for cellular TIPARP inhibition potency.
Compound stock solutions (10 mM) were serially diluted in 3-fold increments in dimethyl sulfoxide. Sample aliquots (120 nL) were dispensed into Corning® 384-well Flat Clear Bottom White Polystyrene TC-treated Microplates (Corning Life Sciences, Corning, NY, USA) using an ECHO® 550 acoustic Labcyte dispenser (Beckman-Coulter Life Sciences, Indianapolis, IN, USA) to achieve final concentrations between 30 μM and 0.5 nM in the assay. This was followed by the addition of 40 μL of 1000 NCI-H1373 cells (ATCC®, Manassas, VA, USA) in complete growth medium RPMI 1640 growth medium (Thermo Fisher Scientific, Waltham, MA, USA) supplemented with 20 mg/L L-glutamate, 25 mM HEPES (4-(2-hydroxyethyl)-1-piperazineethanesulfonic acid), 10% (v/v) heat inactivated FBS (fetal bovine serum), 1% (w/v) penicillin-streptomycin, and 100 nM 10-Cl-BBQ (10-chloro-7H-benzimidazo[2,1-a]benz[de]isoquinolin-7-one, (Tocris, Minneapolis, MN, USA). Duplicate cell plates with 40 μL cells/well along with various concentrations of compounds were kept in Nunc™ Square BioAssay Dishes (Thermo Fisher Scientific) at 98% relative humidity in a 5% C02 incubator at 37° C. for 6 days. On day 7, plates were moved to ambient lab conditions for 10 minutes until the temperature equilibrated. Following equilibration, CellTiter-Glo® Luminescent Cell Viability Assay reagent (Promega™, Madison, WI, USA) was added (15 μL) to each well of the plates. After a 20 minutes incubation, luminescence was detected using a ViewLux™ microplate imager (PerkinElmer, Waltham, MA, USA). Data analysis was performed using GraphPad Prism (Dotmatics, Boston, MA, USA).

[2] = tested on: DLD-1 parent cells; assay: CellTiter-Glo DLD-1 parent cell assay; assay type: cell-based; conditions: 6 days, read-out: DLD-1 CTG EC50
From the text: (§1) The DLD-1 BRCA2 (−/−) CellTiter-Glo® assay measured the synthetic lethality of PARP1/2 inhibitors and was used as a surrogate to allow measurement of activity of both PARP1 and PARP2 in cells. If PARP1 and PARP2 are inhibited and are trapped onto chromatin during DNA replication, there is replication fork stalling and accumulation of double strand breaks. In BR CA wild-type cells, the resulting double strand DNA breaks are repaired via homologous recombination. In cells with mutation of BRCA1 or BRCA2, homologous recombination repair of DNA double strand breaks is defective, and cell death occurs after PARP1/2 inhibitor treatment (Lord C J, Ashworth A. PARP inhibitors: synthetic lethality in the clinic. Science. 2017 Mar. 17; 355(6330):1152-1158). Testing compounds in viability assays with the DLD-1-BR CA 2 (−/−) and DLD-1 parent cell enabled assessment on PARP1/2-dependent (cytotoxicity in the BRCA2 (−/−) cells only) vs. non-selective cytotoxicity in both cell lines.
(§2) Compound stock solutions (10 mM) were serially diluted in 3-fold increments in dimethyl sulfoxide (DMSO). Sample aliquots (120 nL) were dispensed into Corning® 384-well Flat Clear Bottom White Polystyrene TC-treated Microplates (Corning Life Sciences, Corning, NY, USA) using an ECHO® 550 acoustic Labcyte dispenser (Beckman-Coulter Life Sciences, Indianapolis, IN, USA) to achieve concentrations between 30 μM and 0.5 nM in the assay. In the assay, 40 μL of 500 DLD-1 parent cells (HORIZON® Therapeutics, Deerfield, IL, USA) or 40 μL of 1200 DLD-1-BRCA2 (−/−) cells (HORIZON Therapeutics) in complete growth medium containing RPMI 1640 growth medium (ThermoFisher Scientific, Waltham, MA, USA) supplemented with 20 mg/L L-glutamate, 25 mM HEPES (4-(2-hydroxyethyl)-1-piperazineethanesulfonic acid), 10% (v/v) heat inactivated FBS (fetal bovine serum), and 1% (w/v) Penicillin-Streptomycin were added.
(§3) Duplicate cell plates with 40 μL cells/well along with various concentrations of compounds were kept in Nunc™ Square BioAssay Dishes (Thermo Fisher Scientific) at 98% relative humidity in a 5% CO2 incubator at 37° C. for 6 days. On day 7, plates were moved to ambient lab conditions for 10 minutes until the temperature equilibrated. Following equilibration, CellTiter-Glo® Luminescent Cell Viability Assay reagent (Promega™, Madison, WI, USA) was added (15 μL) to each well of the plates. After a 20 minutes incubation, luminescence was detected using a ViewLux™ microplate imager (PerkinElmer, Waltham, MA, USA). Data analysis was performed using GraphPad Prism (Dotmatics, Boston, MA, USA).

[3] = target: TIPARP GST-(TEV) (Homo sapiens (Human), UniProt Q7Z3E1); assay: TR-FRET binding assay, TIPARP; conditions: for pIC50: TR-FRET, Probe 1, 2 hours incubation; for PARP1/TIPARP IC50 Ratio: ratio of PARP1 GST IC50 to TIPARP GST-(TEV) IC50
TIPARP GST-(TEV), sequence (Q7Z3E1 441-657): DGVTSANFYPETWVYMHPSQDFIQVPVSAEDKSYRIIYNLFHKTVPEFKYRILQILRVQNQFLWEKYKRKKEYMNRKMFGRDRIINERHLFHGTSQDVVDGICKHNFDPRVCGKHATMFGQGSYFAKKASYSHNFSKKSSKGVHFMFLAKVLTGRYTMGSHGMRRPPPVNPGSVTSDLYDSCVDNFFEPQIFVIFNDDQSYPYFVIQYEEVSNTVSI
From the text: The full-length cDNA encoding the human TIPARP (NP_001171647.1, UniProtKB-Q7Z3E1) of 657 amino acids was the template to generate the expression construct. […] The TIPARP fusion protein includes GST, glutathione S-transferase, a 26 kDa protein whose DNA sequence is frequently integrated into expression vectors for production of recombinant proteins. A […], was cloned into vector pFastBacTM 1 (Thermo Fisher Scientific) with an N-terminal GST tag followed by a TEV protease site to produce the TIPARP fusion protein, TIPARP GST-(TEV). TR-FRET assays were used to measure the binding of compounds to TIPARP and PARP1, and to characterize biochemical selectivity. Compound stock solutions (10 mM) were serially diluted in 3-fold increments in dimethyl sulfoxide (DMSO). Diluted compounds were dispensed (30 nL) into white ProxiPlate-384-well plates (PerkinElmer, Waltham, MA, USA) using an ECHO® 550 acoustic Labcyte dispenser (Beckman-Coulter Life Sciences, Indianapolis, IN, USA) to achieve a final starting concentration of 30 μM to 0.5 nM in the assay. This was followed by addition of 5 μL of 2× protein/probe mix (Table 2) made in assay buffer (Tris-HCl 50 mM pH 8.0; 5 mM MgCl2; 5 μM ZnCl2; 1 mM DTT (dithiothreitol); 0.15% BSA (bovine serum albumin) (w/v); and 0.01% TritonX-100 (w/v)) at final concentrations listed in Table 2. Subsequently, 5 μL of 2× antibody (Tb-labeled anti-GST antibody, Thermo Fisher Scientific, Waltham, MA, USA) in HEPES buffered saline was added to each well at a final concentration of 1 nM. The samples were then incubated for 2 hours under ambient conditions. Fluorescence was measured and TR-FR ET ratios were determined on an EnVision multimode plate reader (PerkinElmer) using a 520 nanometer (nm) excitation wavelength and collecting fluorescence emission at 495 nm. […] [table]

[4] = target: PARP1 GST (Homo sapiens (Human), UniProt P09874); assay: TR-FRET binding assay, PARP1; conditions: Probe 2, 2 hours incubation
PARP1 GST, sequence (P09874 whole entry): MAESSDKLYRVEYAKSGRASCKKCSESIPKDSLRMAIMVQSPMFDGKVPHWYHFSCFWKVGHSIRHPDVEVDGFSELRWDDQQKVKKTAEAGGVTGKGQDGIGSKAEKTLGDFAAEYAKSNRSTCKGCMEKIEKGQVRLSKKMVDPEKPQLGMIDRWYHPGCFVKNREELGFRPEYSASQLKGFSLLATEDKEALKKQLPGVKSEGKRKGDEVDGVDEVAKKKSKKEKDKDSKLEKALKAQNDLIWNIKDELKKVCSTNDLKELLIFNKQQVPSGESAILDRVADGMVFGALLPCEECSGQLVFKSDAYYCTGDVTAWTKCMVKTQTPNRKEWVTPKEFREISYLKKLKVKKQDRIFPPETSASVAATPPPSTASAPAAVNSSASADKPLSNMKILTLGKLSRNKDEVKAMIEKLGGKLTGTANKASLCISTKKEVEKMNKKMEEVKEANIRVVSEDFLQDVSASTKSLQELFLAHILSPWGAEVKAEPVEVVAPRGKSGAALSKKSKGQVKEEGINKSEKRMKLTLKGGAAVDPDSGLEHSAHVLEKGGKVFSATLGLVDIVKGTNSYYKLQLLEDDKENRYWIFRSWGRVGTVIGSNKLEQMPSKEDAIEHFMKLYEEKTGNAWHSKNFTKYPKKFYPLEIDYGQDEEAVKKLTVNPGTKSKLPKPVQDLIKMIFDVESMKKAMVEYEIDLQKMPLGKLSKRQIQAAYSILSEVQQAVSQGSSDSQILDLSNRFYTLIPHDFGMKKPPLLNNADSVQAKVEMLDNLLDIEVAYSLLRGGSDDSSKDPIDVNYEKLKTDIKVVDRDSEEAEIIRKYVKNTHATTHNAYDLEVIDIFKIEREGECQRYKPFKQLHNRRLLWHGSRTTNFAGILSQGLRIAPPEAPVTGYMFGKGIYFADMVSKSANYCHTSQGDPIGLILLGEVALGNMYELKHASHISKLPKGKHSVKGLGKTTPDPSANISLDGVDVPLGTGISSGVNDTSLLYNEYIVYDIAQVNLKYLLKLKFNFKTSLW
Description: TR-FRET assays were used to measure the binding of compounds to TIPARP and PARP1, and to characterize biochemical selectivity. Compound stock solutions (10 mM) were serially diluted in 3-fold increments in dimethyl sulfoxide (DMSO). Diluted compounds were dispensed (30 nL) into white ProxiPlate-384-well plates (PerkinElmer, Waltham, MA, USA) using an ECHO® 550 acoustic Labcyte dispenser (Beckman-Coulter Life Sciences, Indianapolis, IN, USA) to achieve a final starting concentration of 30 μM to 0.5 nM in the assay. This was followed by addition of 5 μL of 2× protein/probe mix (Table 2) made in assay buffer (Tris-HCl 50 mM pH 8.0; 5 mM MgCl2; 5 μM ZnCl2; 1 mM DTT (dithiothreitol); 0.15% BSA (bovine serum albumin) (w/v); and 0.01% TritonX-100 (w/v)) at final concentrations listed in Table 2. Subsequently, 5 μL of 2× antibody (Tb-labeled anti-GST antibody, Thermo Fisher Scientific, Waltham, MA, USA) in HEPES buffered saline was added to each well at a final concentration of 1 nM. The samples were then incubated for 2 hours under ambient conditions. Fluorescence was measured and TR-FR ET ratios were determined on an EnVision multimode plate reader (PerkinElmer) using a 520 nanometer (nm) excitation wavelength and collecting fluorescence emission at 495 nm.

[5] = tested on: DLD-1 BRCA2 (−/−) cells; assay: CellTiter-Glo DLD-1 BRCA2 (−/−) cell assay for PARP1/2 inhibition; assay type: cell-based; conditions: 6 days, read-out: DLD-1 BRCA2 (−/−) CTG EC50
From the text: as §1, §2, §3

Row | SMILES | pEC50 ([1]; Homo sapiens, NCI-H1373, 144 h) | pEC50 ([2]; Homo sapiens, 144 h) | pIC50 [3] | PARP1/TIPARP IC50 Ratio [3] | pIC50 [4] | pEC50 ([5]; Homo sapiens, 144 h) | pEC50 [1] | pEC50 [2] | pEC50 [5]
1 | C[C@@H]1CN(C(=O)[C@H]2C[C@@H](Cc3c[nH]c(=O)c(C(F)(F)F)c3)C2)C[C@H](C)N1c1ncc(C(F)(F)F)cn1 [Example 14, 5-{[(1s,3s)-3-{(3R,5S)-3,5-dimethyl-4-[5-(trifluoromethyl)pyrimidin-2-yl]piperazine-1-carbonyl}cyclobutyl]methyl}-3-(trifluoromethyl)pyridin-2(1H)-one] | 7.96 | 4.84 | 8.66 | 1890 | 5.39 | 5.35 | – | – | –
2 | C[C@H]1CN(C(=O)[C@H]2C[C@@H](Cc3c[nH]c(=O)c(C(F)(F)F)c3)C2)CCN1c1ncc(C(C)(C)O)cn1 [Example 20, 5-{[(1R,3s)-3-{(3S)-4-[5-(2-hydroxypropan-2-yl)pyrimidin-2-yl]-3-methylpiperazine-1-carbonyl}cyclobutyl]methyl}-3-(trifluoromethyl)pyridin-2(1H)-one] | 7.09 | < 4.52 | 8.16 | 306 | 5.67 | 5.52 | – | – | –
3 | C[C@@H]1CN(c2ncc(C(C)(C)O)cn2)CCN1C(=O)[C@H]1C[C@@H](Cc2c[nH]c(=O)c(C(F)(F)F)c2)C1 [Example 19, 5-{[(1S,3s)-3-{(2R)-4-[5-(2-hydroxypropan-2-yl)pyrimidin-2-yl]-2-methylpiperazine-1-carbonyl}cyclobutyl]methyl}-3-(trifluoromethyl)pyridin-2(1H)-one] | 7.15 | < 4.52 | 8.24 | 1170 | 5.17 | 4.74 | – | – | –
4 | C[C@@H]1CN(c2ncc(C(C)(C)O)cn2)CCN1C(=O)[C@H]1C[C@@H](c2c[nH]c(=O)c(C(F)(F)F)c2)C1 [Example 9, 5-[(1S,3s)-3-{(2R)-4-[5-(2-hydroxypropan-2-yl)pyrimidin-2-yl]-2-methylpiperazine-1-carbonyl}cyclobutyl]-3-(trifluoromethyl)pyridin-2(1H)-one] | 7.17 | < 4.52 | 8.36 | 1010 | 5.36 | < 4.52 | – | – | –
5 | O=c1[nH]cc(C[C@H]2C[C@@H](C(=O)N3CCN(c4ncc(C(F)(F)F)cn4)CC3)C2)cc1C(F)(F)F [Example 29, 3-(trifluoromethyl)-5-{[(1s,3s)-3-{4-[5-(trifluoromethyl)pyrimidin-2-yl]piperazine-1-carbonyl}cyclobutyl]methyl}pyridin-2(1H)-one] | – | – | 8.76 | 150 | 6.58 | – | 7.74 | 5.22 | 6.64
6 | C[C@H]1CN(C(=O)[C@H]2C[C@@H](Cc3c[nH]c(=O)c(C(F)(F)F)c3)C2)CCN1c1ncc(C(F)(F)F)cn1 [Example 16, 5-{[(1R,3s)-3-{(3S)-3-methyl-4-[5-(trifluoromethyl)pyrimidin-2-yl]piperazine-1-carbonyl}cyclobutyl]methyl}-3-(trifluoromethyl)pyridin-2(1H)-one] | 7.72 | 4.82 | 8.48 | 347 | 5.94 | 6.00 | – | – | –
7 | O=c1[nH]cc([C@H]2C[C@@H](C(=O)N3CCN(c4ncc(C(F)(F)F)cn4)CC3)C2)cc1C(F)(F)F [Example 23, 3-(trifluoromethyl)-5-[(1s,3s)-3-{4-[5-(trifluoromethyl)pyrimidin-2-yl]piperazine-1-carbonyl}cyclobutyl]pyridin-2(1H)-one] | – | – | 8.56 | 49.6 | 6.87 | – | 7.35 | 4.88 | 6.11

Reference: patent US20250333394A1, “Tiparp Inhibitor Compounds” (AbbVie Inc., priority 2024, published 2025)
